Measurements: patent publication US5102877A, “1-azabicyclo[3.2.0]hept-2-ene-2-carboxylic acid compounds” (Fujisawa Pharmaceutical Co., Ltd., priority 1989, dated 1992)

Test system: S. aureus 6
Experiment: in vitro Antimicrobial Activity, two-fold agar-plate dilution method
Type: cell-based
Conditions: Staphylococcus aureus, heart infusion agar, 10^6 viable cells per ml, 37° C. for 20 hours, read-out: minimal inhibitory concentration (MIC)
Procedure: in vitro Antimicrobial Activity was determined by the two-fold agar-plate dilution method as described below.
One loopful of an overnight culture of a test strain in Trypticase-soy broth (10^6 viable cells per ml) was streaked on heart infusion agar (HI-agar) containing graded concentrations of the test compound, and the minimal inhibitory concentration (MIC) was expressed in terms of μg/ml after incubation at 37° C. for 20 hours.

C[C@@H](O)[C@H]1C(=O)N2C(C(=O)O)=C(C3CCN(C=N)C3)C[C@H]12 (stereo partly drawn) [Example 12, (5R,6S)-3-(1-formimidoylpyrrolidin-3-yl)-6-[(1R)-1-hydroxyethyl]-7-oxo-1-azabicyclo[3.2.0]hept-2-ene-2-carboxylic acid]
MIC: ≤ 0.025 µg/mL
